Results on 8 molecules are retold here after patent US20260191982A1, “ANTI-BASAL CELL ADHESION MOLECULE ANTIBODY-DRUG CONJUGATE” (Genome & Company, Inc., priority 2022, published 2026).

Non-standard residues stand in square brackets, D forms with d. Residues, ends and D or L forms follow the SMILES beside them. Groups on a side chain read outwards from the residue. *: point of attachment. DM1Mal(CH2)2CO = COc1cc2cc(c1Cl)N(C)C(=O)C[C@H](OC(=O)[C@H](C)N(C)C(=O)CCSC1CC(=O)N(CCC(=O)*)C1=O)[C@]1(C)O[C@H]1[C@H](C)[C@@H]1C[C@@](O)(NC(=O)O1)[C@H](OC)/C=C/C=C(\C)C2; X2 = CC(=O)N[C@@H](CSC1CC(=O)N(CCC(=O)*)C1=O)C(=O)O; Dolaproine = CO[C@@H]([C@@H]1CCCN1)[C@@H](C)C(=O)O; Dil = CC[C@H](C)[C@H](NC)[C@@H](CC(=O)O)OC; NMe2Val = CC(C)[C@@H](C(=O)*)N(C)C; PEG5 = NCCOCCOCCOCCOCCOCCC(=O)O; Cit = NC(=O)NCCC[C@H](N)C(=O)O; PEG4 = NCCOCCOCCOCCOCCC(=O)O

The target in this data set is T1, Cathepsin B (Homo sapiens, UniProt P07858).
T1 construct: purchased R&D Systems, Bio-Techne AG 953-CY-010
Nature of the data set: Cat B-induced cleavage, in vitro enzymatic cleavage assay with UHPLC-MS/MS. Format: biochemical. The following applies: for Ratio (T1/2 Compound/T1/2 Reference): versus Cys-MC-Val-Cit-PABC-MMAF; for half-life at 10 μM: human, recombinant human Cathepsin B (activated), 10 μM test compound, Cathepsin B 2 μg/mL, MES buffer pH 5.0, 37° C., read-out: T1/2 Compound. The method, then: Cat B-induced cleavage of the antibody-drug conjugates can be evaluated according to the in vitro enzymatic cleavage assay using recombinant human Cathepsin B (commercially acquired from R&D Systems, Bio-Techne AG, cat #. 953-CY-010 in the form of a precursor) and UHPLC-MS/MS analysis.
Briefly, the enzyme is reconstituted in 25 mM 2-(N-morpholino) ethanesulfonic acid (MES) buffer adjusted at pH 5.0 with a 1M NaOH solution and then activated with a […] solution of Dithiothreitol (DDT) at room temperature for at least 15 min. The in vitro enzymatic assay is conducted at 37° C. with the test compound at a concentration of 10 μM (when the test compound is a linker according to the present invention wherein the maleimide group has been quenched in the presence of acetyl-cysteine (Ac-Cys-OH)) or 2.5 μM (when the test compound is an antibody-drug conjugate) in the presence of activated recombinant human Cathepsin B enzyme at 2 μg/mL in a 25 mM MES buffer pH 5.0. The enzymatic cleavage reaction is stopped for each defined time point by mixing a 1/10 ratio volume of acetonitrile+0.1% formic acid (FA) containing an internal standard (warfarine at 0.5 μM). Analysis is conducted using a Waters Acquity UPLC System coupled to a Waters Xevo TQ triple quad mass spectrometer. UHPLC is conducted with a HSS T3 1.8 μm 50×2.1 mm column (Waters) heated at 45° C. and fitted with 2 μm insert filter pre-column (Waters), and solvent systems A1 (H2O+0.1% FA) and B1 (acetonitrile+0.1% FA) at a flow rate of 0.6 mL/min and a 5-95% gradient of B1 over 2.0 min. MS/MS is performed using electrospray ionization (ESI) interface in positive mode and specific MRM transitions for each compound.
The propensity of compounds 1-13 to be cleaved by Cathepsin B was evaluated according to an in vitro enzymatic cleavage assay using recombinant human Cathepsin B and UHPLC-MS/MS analysis as described in Section 2.3.5 above.

As to `CC[C@H](C)[C@@H]([C@@H](CC(=O)N1CCC[C@H]1[C@H](OC)[C@@H](C)C(=O)N[C@@H](Cc1ccccc1)C(=O)N[C@@H](CCCNC(=N)N)C(=O)N[C@@H](CCCCNC(=O)CCOCCOCCOCCOCCOCCNC(=O)CCN1C(=O)CC(SC[C@H](NC(C)=O)C(=O)O)C1=O)C(=O)N[C@@H](Cc1ccccc1)C(=O)O)OC)N(C)C(=O)[C@@H](NC(=O)[C@H](C(C)C)N(C)C)C(C)C` (stereo partly drawn) [compound 1, AF-Arg-Lys(PEG4-Mal-Cys-Ac)-Phe-OH] (NMe2Val-V[Dil][Dolaproine]FRK([PEG5-X2])F-OH), the “Ratio (T1/2 Compound/T1/2 Reference)” value came out at 0.12.
On the same count and under the same terms, the result for `CC[C@H](C)[C@@H]([C@@H](CC(=O)N1CCC[C@H]1[C@H](OC)[C@@H](C)C(=O)N[C@@H](Cc1ccccc1)C(=O)N[C@@H](CCCNC(=N)N)C(=O)N[C@@H](Cc1ccccc1)C(=O)N[C@@H](CCCCNC(=O)CCOCCOCCOCCOCCNC(=O)CCN1C(=O)CC(SC[C@H](NC(C)=O)C(=O)O)C1=O)C(=O)O)OC)N(C)C(=O)[C@@H](NC(=O)[C@H](C(C)C)N(C)C)C(C)C` (stereo partly drawn) [compound 3, AF-Arg-Phe-Lys(PEG4-Mal-Cys-Ac)-OH] (NMe2Val-V[Dil][Dolaproine]FRFK([PEG4-X2])-OH) reads 0.11.
In the case of `COc1cc2cc(c1Cl)N(C)C(=O)C[C@H](OC(=O)[C@H](C)N(C)C(=O)CCSC1CC(=O)N(CCC(=O)N[C@@H](Cc3ccccc3)C(=O)N[C@@H](CCCCN)C(=O)N[C@@H](CCCCNC(=O)CCOCCOCCOCCOCCNC(=O)CCN3C(=O)CC(SC[C@H](NC(C)=O)C(=O)O)C3=O)C(=O)N[C@@H](Cc3ccccc3)C(=O)O)C1=O)[C@]1(C)O[C@H]1[C@H](C)[C@@H]1C[C@@](O)(NC(=O)O1)[C@H](OC)/C=C/C=C(\C)C2` (stereo partly drawn) [compound 5, DM1-Mal-Phe-Lys-Lys(PEG4-Mal-Cys-Ac)-Phe-OH] ({DM1Mal(CH2)2CO}-FKK([PEG4-X2])F-OH), the “Ratio (T1/2 Compound/T1/2 Reference)” value came out at 0.05. The “Cat B-induced drug release, times faster than reference” value (compared to Cys-MC-Val-Cit-PABC-MMAF) came to 20 times.
`COc1cc2cc(c1Cl)N(C)C(=O)C[C@H](OC(=O)[C@H](C)N(C)C(=O)CCSC1CC(=O)N(CCC(=O)N[C@@H](Cc3ccccc3)C(=O)N[C@@H](CCCNC(N)=O)C(=O)N[C@@H](CCCCNC(=O)CCOCCOCCOCCOCCNC(=O)CCN3C(=O)CC(SC[C@H](NC(C)=O)C(=O)O)C3=O)C(=O)N[C@@H](Cc3ccccc3)C(=O)O)C1=O)[C@]1(C)O[C@H]1[C@H](C)[C@@H]1C[C@@](O)(NC(=O)O1)[C@H](OC)/C=C/C=C(\C)C2` (stereo partly drawn) [compound 6, DM1-Mal-Phe-Cit-Lys(PEG4-Mal-Cys-Ac)-Phe-OH] ({DM1Mal(CH2)2CO}-F[Cit]K([PEG4-X2])F-OH): the “Ratio (T1/2 Compound/T1/2 Reference)” value is recorded as 0.02.
The same measure, in the same setting: the result for `COc1cc2cc(c1Cl)N(C)C(=O)C[C@H](OC(=O)[C@H](C)N(C)C(=O)CCSC1CC(=O)N(CCC(=O)N[C@@H](Cc3ccccc3)C(=O)N[C@@H](CCCNC(N)=O)C(=O)N[C@@H](Cc3ccccc3)C(=O)N[C@@H](CCCCNC(=O)CCOCCOCCOCCOCCNC(=O)CCN3C(=O)CC(SC[C@H](NC(C)=O)C(=O)O)C3=O)C(=O)O)C1=O)[C@]1(C)O[C@H]1[C@H](C)[C@@H]1C[C@@](O)(NC(=O)O1)[C@H](OC)/C=C/C=C(\C)C2` (stereo partly drawn) [compound 7, DM1-Mal-Phe-Cit-Phe-Lys(PEG4-Mal-Cys-Ac)-OH] ({DM1Mal(CH2)2CO}-F[Cit]FK([PEG4-X2])-OH) reads 0.09.
In the case of `CC[C@H](C)[C@@H]([C@@H](CC(=O)N1CCC[C@H]1[C@H](OC)[C@@H](C)C(=O)N[C@@H](Cc1ccccc1)C(=O)N[C@@H](CCCNC(N)=O)C(=O)N[C@@H](CCCCNC(=O)CCOCCOCCOCCOCCNC(=O)CCN1C(=O)CC(SC[C@H](NC(C)=O)C(=O)O)C1=O)C(=O)N[C@@H](Cc1ccccc1)C(=O)O)OC)N(C)C(=O)[C@@H](NC(=O)[C@H](C(C)C)N(C)C)C(C)C` (stereo partly drawn) [compound 8, AF-Cit-Lys(PEG4-Mal-Cys-Ac)-Phe-OH] (NMe2Val-V[Dil][Dolaproine]F[Cit]K([PEG4-X2])F-OH), the “Ratio (T1/2 Compound/T1/2 Reference)” value was determined as 0.09.
As to `COc1cc2cc(c1Cl)N(C)C(=O)C[C@H](OC(=O)[C@H](C)N(C)C(=O)CCSC1CC(=O)N(CC3CCC(C(=O)N[C@@H](Cc4ccccc4)C(=O)N[C@@H](CCCNC(N)=O)C(=O)N[C@@H](CCCCNC(=O)CCOCCOCCOCCOCCOCCNC(=O)CN4C(=O)CC(SC[C@H](NC(C)=O)C(=O)O)C4=O)C(=O)N[C@@H](Cc4ccc(O)cc4)C(=O)O)CC3)C1=O)[C@]1(C)O[C@H]1[C@H](C)[C@@H]1C[C@@](O)(NC(=O)O1)[C@H](OC)/C=C/C=C(\C)C2` (stereo partly drawn) [compound 11, DM1-Mcc-Phe-Cit-Lys(PEG5-Mal-Cys-Ac)-Tyr-OH], the half-life at 10 μM is < 1 min and the “Ratio (T1/2 Compound/T1/2 Reference)” value came out at 0.005.
On the same counts, the results for `COc1cc2cc(c1Cl)N(C)C(=O)C[C@H](OC(=O)[C@H](C)N(C)C(=O)CCSC1CC(=O)N(CC3CCC(C(=O)N[C@@H](CCCNC(N)=O)C(=O)N[C@@H](CCCCNC(=O)CCOCCOCCOCCOCCOCCNC(=O)CN4C(=O)CC(SC[C@H](NC(C)=O)C(=O)O)C4=O)C(=O)N[C@@H](Cc4ccc(O)cc4)C(=O)O)CC3)C1=O)[C@]1(C)O[C@H]1[C@H](C)[C@@H]1C[C@@](O)(NC(=O)O1)[C@H](OC)/C=C/C=C(\C)C2` (stereo partly drawn) [compound 12, DM1-Mcc-Cit-Lys(PEG5-Mal-Cys-Ac)-Tyr-OH] are < 1 min and 0.00004.
